Source: patent publication US20030099983A1, “Cyclic and substituted immobilized molecular synthesis” (Affymetrix, Inc., priority 1991, published 2003)

Test system: monoclonal antibody D32.39
Details: normalized 0 to 100% after background subtraction
Protocol: Non-specific protein binding to the surface was blocked with 1% BSA/PBS/0.05% Tween 20. The array was incubated with the D32.39 antibody at a concentration of 10 μg/ml for 2 hours, followed by reaction with 10 μg/ml of FITC conjugated anti-mounse antibody (Sigma) for 2 hours at 20° C. Following extensive washing with buffer, the array was scanned in a confocal fluorescence microscope with 488 nm excitation from an argon ion laser (Spectra-Physics). […] The replicates were averaged, and the data sorted according to desired sequences.

For FLRRQFKVVT, the “relative intensity (normalized fluorescence signal)” value was “about 100%”.

Same assay, conditions: relative fluorescence intensity of the corresponding surface-immobilized peptide (N-acetylated, C-terminal amide link to surface)

Point of comparison: Ac-RRQFKVVT-OH, “Normalized Intensity (%)” value 99%. Against it:
- Ac-FLRRQFKVVT-OH — lower, 98%
- Ac-QFKVVT-OH [Ac-QFKVVT-OH] — lower, 28%
- Ac-RQFKVVT-OH [Ac-RQFKVVT-OH] — the same, 99%

Same assay, conditions: truncated dynorphin peptides, surface-immobilized, N-acetylated, linked via C-terminal amide; D32.39 10 μg/ml 2 hours; ± SD of min. four replicates; […]

Point of comparison: LRRQF, “Normalized Intensity (%)” value 10 ± 4%. Against it:
- FKVV — the same, 10 ± 2%
- FKVVT — within error, 13 ± 4%
- FLRR — within error, 6 ± 3%
- FLRRQ — within error, 8 ± 3%
- FLRRQF — within error, 8 ± 3%
- FLRRQFK — the same, 10 ± 3%
- FLRRQFKV — within error, 14 ± 3%
- FLRRQFKVV — higher, 37 ± 15%
- FLRRQFKVVT — higher, 98 ± 1%
- KVVT — within error, 11 ± 2%
- LRRQ — the same, 10 ± 4%
- LRRQFK — within error, 12 ± 3%
- LRRQFKV — within error, 16 ± 3%
- LRRQFKVV — higher, 44 ± 12%
- LRRQFKVVT — higher, 87 ± 13%
- QFKV — within error, 11 ± 2%
- QFKVV — higher, 17 ± 2%
- QFKVVT — higher, 28 ± 3%
- RQFK — within error, 13 ± 5%
- RQFKV — within error, 16 ± 4%
- RQFKVV — higher, 54 ± 11%
- RQFKVVT — higher, 99 ± 1%
- RRQF — within error, 11 ± 5%
- RRQFK — within error, 12 ± 3%
- RRQFKV — within error, 16 ± 3%
- RRQFKVV — higher, 58 ± 10%
- RRQFKVVT — higher, 99 ± 1%
